According to ChEMBL document CHEMBL3352525, “RET Kinase Inhibitors May Treat Cancer and Gastrointestinal Disorders” (ACS Med Chem Lett, 2015):
pIC50: −log10 of the molar value.

Tests used:
[1] = target: T1, Proto-oncogene tyrosine-protein kinase receptor Ret (Homo sapiens, UniProt P07949); test: Inhibition of human RET kinase in TT cells by TRET Kinase cell-based mechanistic assay
[2] = target: T1, Proto-oncogene tyrosine-protein kinase receptor Ret; test: Inhibition of human RET kinase cytoplasmic domain by Time-Resolved fluorescence reader assay

T1 sequence (P07949 whole entry, the tested form may be a part): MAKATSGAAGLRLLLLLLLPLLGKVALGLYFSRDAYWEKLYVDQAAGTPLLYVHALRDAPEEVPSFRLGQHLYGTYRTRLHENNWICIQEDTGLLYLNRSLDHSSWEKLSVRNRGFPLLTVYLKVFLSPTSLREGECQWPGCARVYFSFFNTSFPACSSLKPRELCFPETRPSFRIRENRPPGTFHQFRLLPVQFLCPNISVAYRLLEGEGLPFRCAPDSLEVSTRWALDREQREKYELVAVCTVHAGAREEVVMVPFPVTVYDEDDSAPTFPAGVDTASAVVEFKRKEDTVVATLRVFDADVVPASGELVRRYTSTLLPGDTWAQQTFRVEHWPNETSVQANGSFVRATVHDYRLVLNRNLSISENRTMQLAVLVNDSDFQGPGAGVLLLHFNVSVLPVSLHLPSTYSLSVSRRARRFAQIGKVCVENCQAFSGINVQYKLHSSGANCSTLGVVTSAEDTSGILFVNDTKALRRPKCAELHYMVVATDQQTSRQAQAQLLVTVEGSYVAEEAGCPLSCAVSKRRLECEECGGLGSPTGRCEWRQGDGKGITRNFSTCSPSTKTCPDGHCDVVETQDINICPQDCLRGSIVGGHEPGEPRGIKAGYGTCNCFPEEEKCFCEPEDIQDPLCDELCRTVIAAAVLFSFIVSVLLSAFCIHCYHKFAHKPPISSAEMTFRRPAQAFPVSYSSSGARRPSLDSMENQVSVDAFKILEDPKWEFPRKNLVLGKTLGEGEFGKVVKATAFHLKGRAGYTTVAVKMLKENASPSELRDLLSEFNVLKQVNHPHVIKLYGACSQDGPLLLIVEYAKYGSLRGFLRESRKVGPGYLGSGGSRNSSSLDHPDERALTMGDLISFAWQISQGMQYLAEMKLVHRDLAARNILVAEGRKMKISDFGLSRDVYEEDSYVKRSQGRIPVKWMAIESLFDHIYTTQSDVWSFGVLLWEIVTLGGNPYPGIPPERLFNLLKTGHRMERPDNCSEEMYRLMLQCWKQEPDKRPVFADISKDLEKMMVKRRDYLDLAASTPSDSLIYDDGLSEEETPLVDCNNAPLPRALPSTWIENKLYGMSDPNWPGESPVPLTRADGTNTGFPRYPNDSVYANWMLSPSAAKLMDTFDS

For `CCOc1cc(-c2ccc(CC(=O)Nc3ccc(Cl)c(Cl)c3)c(F)c2)c[nH]c1=O`, the pIC50 [1] was < 6.30 and the pIC50 [2] was ≤ 7.00.
